The source of these data is ChEMBL document CHEMBL6121004, “Design, synthesis, and biological evaluation of Ponatinib-based N-Phenylpyrimidine-2-amine derivatives as novel fibroblast growth factor receptor 4 (FGFR4) selective inhibitors” (Eur J Med Chem, 2025).

Series [1] deals with Hep 3B2. The experiment in a line: Induction of apoptosis in human Hep3B cells assessed as necrotic cells at 0.5 uM incubated for 48 hrs by annexin V-FITC/propidium iodide staining based flow cytometry analysis (reference value: 5.20%). Format: functional.
Series [2] in a line: Volume of distribution at steady state in BALB/c male mouse at 1 mg/kg, iv measured upto 24 hrs by LC-MS/MS analysis. The note with it: in vivo, read-out: Vdss. Format: ADME, organism-based.
Series [3] in a line: AUC (0 to t) in BALB/c male mouse at 10 mg/kg, po measured upto 24 hrs by LC-MS/MS analysis. The class given is ADME, organism-based. Particulars: in vivo.
Series [4] relates to Hep3B. Put plainly: Inhibition of MAPK phosphorylation in human Hep3B cells at 0.4 uM incubated for 48 hrs by Western blot analysis. The class given is cell-based.
The subject of series [5] is Hep 3B2. Put plainly: Induction of apoptosis in human Hep3B cells assessed as early apoptotic cells at 0.25 uM incubated for 48 hrs by annexin V-FITC/propidium iodide staining based flow cytometry analysis (reference value: 4.69%). The class given is functional. Background: Flow cytometry measures light scatter and fluorescence of single cells or particles in a stream.

Series [6] in a line: Antiproliferative activity against human L02 cells assessed as inhibition of cell proliferation incubated for 72 hrs by MTT assay. Format: toxicity, cell-based. A general note: Tetrazolium assays rely on reduction of a dye to a coloured formazan, in cell work by metabolically active cells.
For series [7], the system named is Hep 3B2. The experiment in a line: Induction of apoptosis in human Hep3B cells assessed as late apoptotic cells at 1 uM incubated for 48 hrs by annexin V-FITC/propidium iodide staining based flow cytometry analysis (reference value: 5.20%). Format: functional.
The test system of series [8] is Hep 3B2. Put plainly: Induction of apoptosis in human Hep3B cells assessed as necrotic cells at 0.25 uM incubated for 48 hrs by annexin V-FITC/propidium iodide staining based flow cytometry analysis (reference value: 5.20%). The class given is functional.
Series [9] can be described thus: Half life in BALB/c male mouse at 1 mg/kg, iv measured upto 24 hrs by LC-MS/MS analysis. The class given is ADME, organism-based. The note with it: in vivo.
Series [10] can be described thus: MRT (0 to t) in BALB/c male mouse at 1 mg/kg, iv measured upto 24 hrs by LC-MS/MS analysis. The class given is ADME, organism-based. The note with it: in vivo.
The test system of series [11] is Huh-7. The experiment in a line: Induction of apoptosis in human Huh-7 cells assessed as viable cells at 1 uM incubated for 48 hrs by annexin V-FITC/propidium iodide staining based flow cytometry analysis (reference value: 84.91%). Format: functional. Particulars: read-out: Activity.
The nature of series [12]: Toxicity in male nude mouse implanted with human Huh-7 cells assessed as liver damage at 12.5 to 50 mg/kg, ip administered for 15 days. Particulars: in vivo, 360 h, dose 12.5-50 mg/kg, time 15 day. The class given is organism-based.
Series [13] is described as follows: AUC (0 to t) in BALB/c male mouse at 1 mg/kg, iv measured upto 24 hrs by LC-MS/MS analysis. Format: ADME, organism-based. The note with it: in vivo.
Series [14] has as its system Huh-7. The experiment in a line: Antitumor activity against human Huh-7 cells xenografted in nude mouse assessed as tumor growth inhibition at 12.5 mg/kg, ip administered for 15 days. The note with it: Huh-7, 360 h, time 15 day, read-out: TGI. Format: functional.
Series [15] has as its system Huh-7. Put plainly: Induction of apoptosis in human Huh-7 cells assessed as necrotic cells at 0.1 uM incubated for 48 hrs by annexin V-FITC/propidium iodide staining based flow cytometry analysis (reference value: 5.20%). The class given is functional.
The subject of series [16] is Huh-7. The experiment in a line: Induction of apoptosis in human Huh-7 cells assessed as late apoptotic cells at 0.5 uM incubated for 48 hrs by annexin V-FITC/propidium iodide staining based flow cytometry analysis (reference value: 5.20%). The class given is functional.
The test system of series [17] is Hep 3B2. Put plainly: Effect on MAPK level in human Hep3B cells at 0.25 to 1 uM incubated for 48 hrs by Western blot analysis. The class given is functional, cell-based. Particulars: dose 0.25-1 µM. (A western blot detects proteins with antibodies after separation by electrophoresis.)
Series [18] deals with Huh-7. The experiment in a line: Downregulation of FAK level in human Huh-7 cells at 0.25 to 1 uM incubated for 48 hrs by Western blot analysis. The class given is functional, cell-based. Particulars: dose 0.25-1 µM.
A short description of series [19]: Toxicity in male nude mouse implanted with human Huh-7 cells assessed as lung damage at 12.5 to 50 mg/kg, ip administered for 15 days. Format: organism-based. Particulars: in vivo, 360 h, dose 12.5-50 mg/kg, time 15 day.
For series [20], the system named is Huh-7. Put plainly: Induction of apoptosis in human Huh-7 cells assessed as necrotic cells at 1 uM incubated for 48 hrs by annexin V-FITC/propidium iodide staining based flow cytometry analysis (reference value: 5.20%). The class given is functional.
For series [21], the species on record is Homo sapiens. The experiment in a line: Inhibition of SRC (unknown origin) at 1 uM relative to control.

Calls of active or inactive are those of the source. The rule behind the calls is not given here.

The AUC(0-t) is the area under the concentration-time curve up to a stated or last time point. A higher AUC(0-t) goes with more exposure. For orientation: inhibition means the percentage by which the read-out fell short of the control. Broadly, the IC50 is the concentration that gives 50% inhibition. What is called half-life is how long it takes for the measured level to halve. Low values mean fast loss, high ones slow loss. The term MRT last denotes the average time that molecules of a dose stay in the body. Consider `C=CC(=O)Nc1cccc(C)c1Nc1ncc(C#Cc2cccc(C(=O)Nc3ccc(CN4CCN(C)CC4)c(C(F)(F)F)c3)c2)cn1`, for which the Activity in series [1] is 6.93%; in series [5] it was 4.38%; in [7], 22.07%; in [8], 5.62%; in series [12], “Non-toxic”; in series [15], 2.37%. Further, the Activity is listed as 11.2% in series [16], “Non-toxic” in series [19] and 9.67% in [20]. Further, the Vd in series [2] worked out at 3.52 L/kg. Besides, the AUC(0-t) at 24 h in [3] was determined as 318 ng·h/mL; in series [13], 241 ng·h/mL. The inhibition entry in series [4] was “Active”. Also, the IC50 at 72 h in series [6] was above 10 µM. In series [9], this compound had a half-life of 47.4 min. This compound showed an MRT last at 24 h in series [10] of 46.2 min. In addition, the viability at 1 µM in [11] turned out to be 63%. Besides, the inhibition in vivo at 12.5 mg/kg in [14] turned out to be 34.9%. The outcome in series [17] and in series [18] was Active. In series [21], the inhibition was below 70%.
